Test results reported in US12516067B2, “Antagonists of the muscarinic acetylcholine receptor M4” (Vanderbilt University, priority 2020, dated 2026).

Target: T1, Human M4 (Homo sapiens, UniProt P08173)
T1 construct: expressed in transfected cells; host or cells: CHO-K1 (ATCC), co-transfected with chimeric G protein Gqi5
T1 sequence (P08173 1-479): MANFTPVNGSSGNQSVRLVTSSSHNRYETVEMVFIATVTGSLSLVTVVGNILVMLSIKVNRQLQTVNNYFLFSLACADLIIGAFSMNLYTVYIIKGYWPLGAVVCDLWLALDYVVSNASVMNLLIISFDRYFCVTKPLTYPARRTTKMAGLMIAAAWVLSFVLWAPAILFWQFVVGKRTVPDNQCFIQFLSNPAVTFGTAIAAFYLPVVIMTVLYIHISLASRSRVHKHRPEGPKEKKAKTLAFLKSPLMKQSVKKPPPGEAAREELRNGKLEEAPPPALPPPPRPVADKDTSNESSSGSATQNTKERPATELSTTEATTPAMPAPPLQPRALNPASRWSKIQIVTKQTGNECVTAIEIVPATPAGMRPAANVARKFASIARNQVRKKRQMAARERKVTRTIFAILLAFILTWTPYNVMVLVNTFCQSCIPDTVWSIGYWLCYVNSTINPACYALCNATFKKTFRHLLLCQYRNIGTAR
Experiment: mAChR M4 cell-based functional assay (calcium flux, decrease of EC80 acetylcholine response) in M4/Gqi5/CHO-K1 cells
Conditions: CHO-K1 cells with human M4 and Gqi5; for remaining activity at 30 µM: % ACh maximum at 30 μM, read-out: Human M4 Emin; for IC50: antagonist mode: concentration-dependent decrease of response to EC80 acetylcholine
Procedure: Human or rat M4 cDNA, along with the chimeric G protein Gqi5, were transfected into Chinese hamster ovary (CHO-K1) cells purchased from the American Type Culture Collection using Lipofectamine2000. M4/Gqi5/CHO cells were grown in Ham's F-12 medium containing 10% heat-inactivated fetal bovine serum (FBS), 20 mM HEPES, 500 μg/mL G418 sulfate, and 200 μg/mL Hygromycin B.
For high throughput measurement of agonist-evoked increases in intracellular calcium, CHO-K1 cells stably expressing muscarinic receptors were plated in growth medium lacking G418 and hygromycin at 15,000 cells/20 μL/well in Greiner 384-well black-walled, tissue culture (TC)-treated, clear-bottom plates (VWR). Cells were incubated overnight at 37° C. and 5% CO2. The next day, cells were washed using an ELX 405 (BioTek) with assay buffer; the final volume was then aspirated to 20 μL. Next, 20 μL of a 2.3 μM stock of Fluo-4/acetoxymethyl ester (Invitrogen, Carlsbad, CA), prepared as a 2.3 mM stock in DMSO and mixed in a 1:1 ratio with 10% (w/v) Pluronic F-127 and diluted in assay buffer, was added to the wells and the cell plates were incubated for 50 min at 37° C. and 5% CO2. Dye was removed by washing with the ELX 405 and the final volume was aspirated to 20 μL. Compound master plates were formatted in a 10 point concentration-response curve (CRC) format (1:3 dilutions) in 100% DMSO with a starting concentration of 10 or 1 mM using a BRAVO liquid handler (Agilent). Test compound CRCs were then transferred to daughter plates (240 nL) using the Echo acoustic plate reformatter (Labcyte, Sunnyvale, CA) and then diluted into assay buffer (40 μL) to a 2× stock using a Thermo Fisher Combi (Thermo Fisher Scientific, Waltham, MA).
Calcium flux was measured using the Functional Drug Screening System (FDSS) 6000 or 7000 (Hamamatsu Corporation, Tokyo, Japan) as an increase in the fluorescent static ratio. Compounds were applied to cells (20 μL, 2×) using the automated system of the FDSS at 2 seconds into the protocol and the data were collected at 1 Hz. At 143 s, 10 μL of an EC20 concentration of the muscarinic receptor agonist acetylcholine was added (5×), followed by the addition of 12 μL of an EC80 concentration of acetylcholine at the 268 s time point (5×). Agonist activity was analyzed as a concentration-dependent increase in calcium mobilization upon compound addition. Positive allosteric modulator activity was analyzed as a concentration-dependent increase in the EC20 acetylcholine response. Antagonist activity was analyzed as a concentration-dependent decrease in the EC80 acetylcholine response; for the purposes of the tables herein, an IC50 (inhibitory concentration 50) was calculated as a concentration-dependent decrease of the response elicited by an EC80 concentration of acetylcholine. Concentration-response curves were generated using a four-parameter logistical equation in XLFit curve fitting software (IDBS, Bridgewater, NJ) for Excel (Microsoft, Redmond, WA) or Prism (GraphPad Software, Inc., San Diego, CA) or the Dotmatics software platform (Dotmatics, Bishop's Stortford, UK).
Compounds were synthesized as described above. Activity (IC50 and Emin) was determined in the mAChR M4 cell-based functional assay as described above and the data are shown in Table 1.

remaining activity at 30 µM [%] | IC50 [µM] | Compound
7 | 0.668 | FC1(F)CCN(c2ccc(NCc3csc4c3CCN(CC3CCOCC3)C4)nn2)CC1 [A6, 6-(4,4-difluoropiperidin-1-yl)-N-((6-((tetrahydro-2H-pyran-4-yl)methyl)-4,5,6,7-tetrahydrothieno[2,3-c]pyridin-3-yl)methyl)pyridazin-3-amine]
11 | 0.616 | Fc1cc(F)c(F)c(-c2ccc(NCc3cccc4c3CCN(CC3CCOCC3)C4)nn2)c1 [B7, N-((2-((tetrahydro-2H-pyran-4-yl)methyl)-1,2,3,4-tetrahydroisoquinolin-5-yl)methyl)-6-(2,3,5-trifluorophenyl)pyridazin-3-amine]
4 | 0.42 | Fc1ccc(F)c(-c2ccc(NCc3csc4c3CCN(CC3CCOCC3)C4)nn2)c1 [A4, 6-(2,5-difluorophenyl)-N-((6-((tetrahydro-2H-pyran-4-yl)methyl)-4,5,6,7-tetrahydrothieno[2,3-c]pyridin-3-yl)methyl)pyridazin-3-amine]
5 | 0.0773 | Cc1ccc(F)cc1-c1ccc(NCc2csc3c2CCN(CC2CCOCC2)C3)nn1 [A5, 6-(5-fluoro-2-methylphenyl)-N-((6-((tetrahydro-2H-pyran-4-yl)methyl)-4,5,6,7-tetrahydrothieno[2,3-c]pyridin-3-yl)methyl)pyridazin-3-amine]
11 | 1.4 | O=S1(=O)CCCCN1c1ccc(NCc2csc3c2CCN(CC2CCOCC2)C3)nn1 [A8, 2-(6-(((6-((tetrahydro-2H-pyran-4-yl)methyl)-4,5,6,7-tetrahydrothieno[2,3-c]pyridin-3-yl)methyl)amino)pyridazin-3-yl)-1,2-thiazinane 1,1-dioxide]
5 | 0.0465 | [2H]C([2H])(C1CCOCC1)N1CCc2c(CNc3ccc(-c4cc(F)ccc4Cl)nn3)csc2C1 [A16, 6-(2-chloro-5-fluorophenyl)-N-((6-((tetrahydro-2H-pyran-4-yl)methyl-d2)-4,5,6,7-tetrahydrothieno[2,3-c]pyridin-3-yl)methyl)pyridazin-3-amine]
5 | 0.335 | Cc1ccc(F)cc1-c1ccc(NCc2cccc3c2CCN(CC2CCOCC2)C3)nn1 [B10, 6-(5-fluoro-2-methylphenyl)-N-((2-((tetrahydro-2H-pyran-4-yl)methyl)-1,2,3,4-tetrahydroisoquinolin-5-yl)methyl)pyridazin-3-amine]
4 | 0.276 | OC1(CN2CCc3c(CNc4ccc(-c5cc(F)ccc5Cl)nn4)csc3C2)CCCCC1 [A13, 1-((3-(((6-(2-chloro-5-fluorophenyl)pyridazin-3-yl)amino)methyl)-4,7-dihydrothieno[2,3-c]pyridin-6(5H)-yl)methyl)cyclohexan-1-ol]
6 | 0.477 | c1ccc(-c2ccc(NCc3csc4c3CCN(CC3CCOCC3)C4)nn2)cc1 [A7, 6-phenyl-N-((6-((tetrahydro-2H-pyran-4-yl)methyl)-4,5,6,7-tetrahydrothieno[2,3-c]pyridin-3-yl)methyl)pyridazin-3-amine]
6 | 0.087 | Fc1ccc(Cl)c(-c2ccc(NCc3cccc4c3CCN(CCC3CCOCC3)C4)nn2)c1 [B5, 6-(2-chloro-5-fluorophenyl)-N-((2-(2-(tetrahydro-2H-pyran-4-yl)ethyl)-1,2,3,4-tetrahydroisoquinolin-5-yl)methyl)pyridazin-3-amine]
8 | 1.25 | Cn1cc2cc(-c3ccc(NCc4cccc5c4CCN(CC4CCOCC4)C5)nn3)ccc2n1 [B9, 6-(2-methyl-2H-indazol-5-yl)-N-((2-((tetrahydro-2H-pyran-4-yl)methyl)-1,2,3,4-tetrahydroisoquinolin-5-yl)methyl)pyridazin-3-amine]
